Assay results from patent US7074823B2, “Fluorescent probe for zinc” (Daiichi Pure Chemical Co., Ltd., priority 2000, dated 2006).

Experiments:
[1] = Changes with time in fluorescence intensity after addition of zinc ion; conditions: 5 μM compound, zinc ion 5 μM or 50 μM, 100 mM HEPES pH 7.5
Protocol: Zinc ion (final concentration 5 μM or 50 μM) was added in 100 mM HEPES (pH 7.5) containing 5 μM Compound 6, Compound 12, or ACF-1 (a compound having a cyclic polyamine moiety described as Compound (20) in Example 1 in Japanese Patent Application No. (Hei) 11-40325) to measure fluorescence intensity. The fluorescence intensity was measured at the excitation wavelength of 491 nm and the fluorescence wavelength of 513 nm for Compound 6, the excitation wavelength of 492 nm and the fluorescence wavelength of 514 nm for Compound 12, and the excitation wavelength of 495 nm and the fluorescence wavelength of 515 nm for ACF-1. In the figure, the ordinate axis represents relative fluorescence intensity. […] Accordingly, the use of the compound according to the present invention enables very quick detection of zinc, and also enables the detection of rapid change in the concentration of zinc.

[2] = Selectivity for zinc ions: fluorescence intensity in buffer containing various metal ions; conditions: 1 μM compound
Protocol: Compound 6 obtained in Example 1 and Compound 12 obtained in Example 2 were used to evaluate selectivity for zinc ions. 5 μM of Compound 6 or Compound 12 was added in 100 mM HEPES buffer (pH 7.5) containing various metal ions (5 μM or 5 mM). The fluorescence intensity was measured at the excitation wavelength of 491 nm and the fluorescence wavelength of 513 nm for Compound 6, and the excitation wavelength of 492 nm and the fluorescence wavelength of 514 nm for Compound 12. The results are shown in FIG. 1 (Compound 6) and FIG. 2 (Compound 12). 1 μM of Compound 21 was added in 100 mM HEPES buffer (pH 7.5) containing various metal ions (1 μM or 5 mM), and the fluorescence intensity was measured at the excitation wavelength of 505 nm and the fluorescence wavelength of 522 nm.
In the figures, the fluorescence intensities on the ordinate axis are shown as numerical values with addition of each metal ion relative to the fluorescence intensity without addition of metal ion which is taken as 1.

[3] = Changes in fluorescence intensity with relation to pH changes; format: physicochemical; conditions: pH of around 7.4 (intracellular pH)
Protocol: Changes in fluorescence intensity of Compound 12, Compound 21, and zinc complexes thereof were investigated with relation to pH changes. The fluorescence intensity was measured at the excitation wavelength of 492 nm and the fluorescence wavelength of 514 nm for Compound 12, and the excitation wavelength of 505 nm and the fluorescence wavelength of 522 nm for Compound 21.
Buffers used are as follows.
100 mM Cl2CHCOOH—Cl2CHCOONa buffer (pH 2.0)
100 mM ClCH2COOH—ClCH2COONa buffer (pH 3.0)
100 mM CHES buffer (pH 8.5)

[4] = conventional probes, short wavelength excitation light; cited from earlier work

In the case of `CN1CCN(C)CCN(c2ccc(-c3c4ccc(=O)cc-4oc4cc(O)ccc34)cc2)CCN(C)CC1` [ACF-1], the “increase of fluorescence intensity with time after zinc ion addition” value [1] was “not instantly increased”.

With `O=C1C=C2Oc3cc(O)c(Cl)cc3C(c3ccc(NCCN(Cc4ccccn4)Cc4ccccn4)cc3C(=O)O)C2C=C1Cl` (centres unmarked) [Compound 21] the selectivity for zinc ([2]; 100 mM HEPES buffer pH 7.5, various metal ions 1 μM or 5 mM) was “high selectivity”, the “effect of sodium, potassium, calcium, magnesium on the increase in fluorescence intensity caused by zinc” value ([2]; HEPES pH 7.5) was “did not affect” and the “increase in fluorescence intensity on addition of sodium, potassium, calcium and magnesium” value ([2]; metal ions at high concentration (5 mM), HEPES pH 7.5) was “almost no increase”. For the same compound, the “stability of fluorescence intensity to pH changes” value [3] was “more stable than Compound 12”.

In the case of `CN(C)c1cccc2c(S(=O)(=O)NCCN3CCNCCNCCNCC3)cccc12` [Dansylaminoethylcyclen], the excitation wavelength [4] is listed as 323 nm.

For `COc1cc(NS(=O)(=O)c2ccc(C)cc2)c2ncccc2c1` [TSQ], the excitation wavelength [4] is listed as 367 nm.

For `CCOC(=O)COc1cc(NS(=O)(=O)c2ccc(C)cc2)c2nc(C)ccc2c1` [Zinquin], the excitation wavelength [4] is given as 368 nm.
